Source: patent publication US9140689B2, “Methods of determining susceptibility of tumors to tyrosine kinase inhibitors” (Translational Genomics Research Institute, priority 2010, dated 2015)

How the values were obtained:
Assay type in all cases: cell-based, murine
[1] = test system: BaF3/FGFR2b wildtype cells; assay: BaF3/FGFR2b cell viability (ViaLight assay), wildtype; settings: Mus musculus, BaF3, 72 h, read-out: IC50 value in BaF3/FGFR2b wildtype
Protocol: (§1) The BaF3 cell line is an IL-3 dependent murine pro-B cell line that is commonly employed to model TKI resistant mutations. BaF3 cells are made dependent on a specific oncogenic tyrosine kinase, and are cultured in the presence of a kinase inhibitor against that specific kinase, and resistant colonies can be screened for drug resistant mutations. This approach effectively reproduced the pattern and relative abundance of Bcr-Abl mutations seen clinically in imatinib-resistant patients (Von Bubnoff, N. et al, Blood. 2005 105:1652-1659)
(§2) BaF3/FGFR2b wildtype and N550K mutation variant cells were plated at a density of 10,000 cells/well in a 96-well plate. […] (Selleck Chemicals) or PD173074 (Calbiochem) was added in half-log dilutions in the absence of IL3 and in the presence of 1 nM FGF10 and 5 μg/mL heparin. After 72 hours, cell viability was measured using the ViaLight assay from Lonza (Visp, CH). The IC50 values shown in FIG. 1 were normalized to DMSO control and data were analyzed with Prism software. […].

[2] = test system: BaF3/FGFR2b N550K mutation variant cells; assay: BaF3/FGFR2b cell viability (ViaLight assay), N550K variant
Protocol: as §1, §2

[3] = test system: BaF3/FGFR2b E719G mutation variant cells; assay: BaF3/FGFR2b TKI resistance test, E719G variant alone
From the text: Genomic DNA was isolated from the BaF3.FGFR2b colonies selected in the […]-resistance screen. Exons encoding the intracellular domain of FGFR2b were amplified and sequencing performed in two directions. Mutations in the intracellular domain of FGFR2b were identified in 26 of the 63 (41%) […] resistant BaF3.FGFR2b clones. Among the 26 FGFR2b mutations, eleven different mutation variants were detected (Table 1). The eleven different mutation variants are: M536I, M538I, I548V, N550H, N550K, N550S, V565I, E566G, L618M, E719G, and Y770IfsX14. The most commonly mutated codon was N550, with mutations occurring in 19 of the 26 (73%) resistant clones. In addition, E719G mutation variant was identified in a clone with a N550H mutation; […]. Similar tests were performed with the other 10 FGFR2b mutation variants. The majority of the mutations identified in this drug resistance screen result in activation of FGFR2. […]. The FGFR2 mutations resistance to another TKI PD173074 were also tested. […] The receptor activation of FGFR2 mutants and wildtype were measured and compared in the presence of FGF ligand. […]

Structure (SMILES): CCN(CC)CCCCNc1ncc2cc(-c3cc(OC)cc(OC)c3)c(NC(=O)NC(C)(C)C)nc2n1 [PD173074]
- IC50 [1]: 4.5 nM
- fold difference of IC50, N550K versus wildtype ([2]; BaF3/FGFR2b N550K vs wildtype): over 170 fold
- IC50 ([2]; Mus musculus, BaF3, 72 h, read-out: IC50 value in N550K resistance cells): 776 nM
- resistance conferred by E719G mutation alone [3]: did not induce resistance
